# Results taken from paper PMC7156724, “Potent BRD4 inhibitor suppresses cancer cell-macrophage interaction” (Nature Communications, 2020).
# Values joined by “and” are separate entries in the source; they are usually repeats but may differ in a detail not shown here. Equal entries are not always repeated.
# Experiments:
# A2780 OC cells and TAMs = assay: Orthotopic mouse OC model (intraperitoneal A2780 cells, with or without TAMs): tumor weight, ascitic fluid, IF and FACS; type: in vivo
# Source text: Shown are immunofluorescent staining of CD68 (macrophage marker, red) and E-Cadherin (cancer cells, green) (a) and quantification of CD68 positive cells (b) in vehicle, NHWD-870 treated H526 (n = 6) and A2780 (n = 5) tumors from Fig. 3a, b, respectively. Scale bar is 100 μm. […] Shown are representative immunofluorescent staining of Ki67 and CD68 (c) and quantification of percentage of Ki67+ cells in CD68+ cells (d). Scale bar is 30 μm. Data are presented as mean ± SEM of five different tumors. e Schematics of the animal experiments using an orthotopic mouse OC model, established by intraperitoneally injecting human A2780 cells into female recipient nude mice. Mice were then either untreated (Ctrl) or treated with NHWD-870 (PO, QD, 3 mg/kg) for 45 days. Half of the recipient mice received A2780 cells plus TAMs isolated from tumors of OC-bearing donor mice. f, g Tumor weights (f) and ascitic fluid volumes (g) at day 45 for mice in (e). […] Shown are representative immunofluorescent staining of Ki67 and CD68 (h) and quantification of Ki67^+CD68^− (i) or Ki67^+CD68^+ (j), or CD68^+ cells (k). Scale bar is 50 μm. Data are presented as mean ± SEM from five different mice. p values were calculated using two-tailed, unpaired t tests in this figure. *p < 0.05; **p < 0.01; ***p < 0.001. Source data are provided as a Source Data file.
# To extend our findings, we examined the effects of NHWD-870 in an orthotopic mouse OC model, in which we intraperitoneally injected A2780 OC cells, alone or together with F4/80^+CD11b^+CD206^+ TAMs isolated from the tumor tissues of OC-bearing donor mice 3 days later (Fig. 4e). […] These phenotypes were due to increased proliferation of both tumor cells and macrophages (Ki67^+CD68^− and Ki67^+CD68^+ cells, respectively) (Fig. 4h–i, Ctrl+TAM vs Ctrl). […] The inability to rescue was not due to the limited amount of TAMs (Fig. 4k, CD68^+ cells and Supplementary Fig.11c, d, CD11b^+CD206^+ cells, NHWD-870+TAM vs Ctrl), but likely due to the limited number of proliferating TAMs (Fig. 4j, Ki67^+CD68^+ cells, NHWD-870+TAM vs Ctrl).
# 4–6 weeks old female BALB/c nude mice were used for most experiments, with the exception of 6–8 weeks old female C57BL/6 mice were used for B16F10 experiments, and 6–8 weeks old male BALB/c nude mice and SD rats were used for pharmacokinetic experiments. All animals were purchased from Shanghai SIPPR-Bk Lab Animal Co., Ltd. All animals were housed under a regimen of 12 h light/12 h dark cycles and specific pathogen-free conditions. 5×10^6 NCI-H526, ES-2, MDA-MB231, A2780, A375, B16F10, and TMD-8 cells (0.1 ml) were injected subcutaneously into female nude mice. The melanoma patient-derived xenograft model was derived from a human melanoma sample (BRAF, NARS and NF1 wild type, and p53 mutant) removed from a patient in Xiangya Hospital. Surgically removed tumor fragments were implanted subcutaneously into female NSG mice. […] Mouse body weight and tumor sizes were measured every 3 days. […] Ascitic volume and tumor weight were measured by an electronic balance. All the procedures were evaluated and approved by the Institutional Animal Care and Use Committee of Central South University and Yale University. […]
# with anti-CD45, CD11b and CD206 followed by FACS analysis. Shown are representative FACS plots (c) and quantification of the percentage of CD11b+CD206+ cells (d). Data are presented as mean ± SEM from 5 different mice. p values were calculated using two-tailed, unpaired t tests. **, p<0.01; ***, p<0.001. […]
# [1] = test system: monocytes in peripheral blood; assay: Complete blood cell counting of monocytes in B16F10 tumor bearing mice; type: in vivo, mouse; conditions: B16F10 melanoma tumor bearing mice, 11 days
# Experimental: Reviewer Fig 3. […] B16F10 melanoma […]
# tumor bearing mice (n=5) treated with the indicated compounds for 11 days. Monocytes in blood of DMSO and NHWD-870-treated mice were analyzed by complete blood cell counting (CBC). […]
# tumor cells blocks mCSF expression and blocks proliferation of macrophages ex vivo. It is not possible from these studies to conclude if NHWD-870 mediated inhibition of mCSF expression is responsible for […]
# In part, this is because the culture conditions for this unusual assay have not been described in the methods or text sections. What are the components of the culture medium? Does it include serum, mCSF and other growth factors? A more direct method of testing the effect of tumor cell expressed mCSF on TAMs ex vivo is to incubate TAMs in defined tumor cell conditioned media from untreated and treated tumor cells (the media placed on the macrophages should not include the drug, however). However, there is one other key weakness to these studies that […]
# It is thus not clear if absence of mCSF or products from dying cells suppress macrophage growth as colonies ex vivo. […]
# experiments, which has been added and addressed in response to comment #4. We agree that the experiments can be done with conditioned media. […]
# Shown are schematics of the experiments (m) and quantification of TAMs (n, o). […]
# [2] = day 45, PO, QD, 3 mg/kg, +TAM, 3 mg/kg
smiles,measurement,setting,value
Cc1nnn(C)c1-c1cnc2c3c4cnn(C)c4ccc3n([C@H](c3ccccc3)C3CCOCC3)c2c1 [NHWD-870],quantification of CD68+ cells,A2780 OC cells and TAMs; [2],15 and 17.9 and 19.9 and 12 and 16.7
same,quantification of Ki67+CD68− cells,A2780 OC cells and TAMs; [2],10 and 7 and 13 and 9
same,"fold reduction, in vivo effects on TAMs",A2780 OC cells and TAMs; in vivo,~ 16 fold
same,inhibition of proliferating TAMs,"A2780 OC cells and TAMs; mouse OC model, Fig. 4j",94%
same,"proliferating TAMs (Ki67+CD68+ cells), mean","A2780 OC cells and TAMs; mouse OC model, Fig. 4j, Ctrl […]",0.16%
same,effects on monocytes in peripheral blood,[1],relatively mild effects
